Assay results: paper PMC10897480, “Molecular details of ruthenium red pore block in TRPV channels” (EMBO Reports, 2024)
Blank lines part the entries; values can stand above or below the molecule they belong to.

Columns and labels:
TRPV2 [1] = biological target: T1, TRPV2 (Rattus norvegicus, UniProt Q9WUD2, E609Q); test: whole-cell patch clamp, inhibition of 2-APB-induced currents; type: cell-based
T1 construct: rat TRPV2 expressed in HEK293T cells
T1 sequence (Q9WUD2 1-761 E609Q): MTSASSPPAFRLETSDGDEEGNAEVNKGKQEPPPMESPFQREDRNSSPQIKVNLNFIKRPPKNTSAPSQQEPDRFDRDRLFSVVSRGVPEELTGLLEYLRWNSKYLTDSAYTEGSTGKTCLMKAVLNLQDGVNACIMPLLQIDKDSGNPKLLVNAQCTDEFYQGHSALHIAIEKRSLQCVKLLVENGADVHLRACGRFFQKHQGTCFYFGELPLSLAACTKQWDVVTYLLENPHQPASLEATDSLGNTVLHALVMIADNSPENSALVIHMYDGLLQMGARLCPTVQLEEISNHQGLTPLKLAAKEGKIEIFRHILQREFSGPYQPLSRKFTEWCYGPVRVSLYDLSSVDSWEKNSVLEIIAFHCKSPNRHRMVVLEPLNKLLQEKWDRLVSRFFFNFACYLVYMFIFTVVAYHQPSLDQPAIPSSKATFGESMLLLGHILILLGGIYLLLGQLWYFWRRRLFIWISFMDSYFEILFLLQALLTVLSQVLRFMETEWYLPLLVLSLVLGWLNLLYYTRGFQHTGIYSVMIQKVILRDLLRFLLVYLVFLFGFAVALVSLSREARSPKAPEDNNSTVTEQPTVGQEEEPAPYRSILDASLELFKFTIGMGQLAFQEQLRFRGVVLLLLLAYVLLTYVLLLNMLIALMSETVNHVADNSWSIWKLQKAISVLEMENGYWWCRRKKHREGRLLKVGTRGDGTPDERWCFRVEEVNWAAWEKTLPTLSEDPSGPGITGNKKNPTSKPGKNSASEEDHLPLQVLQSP

TRPV5 [2] = biological target: T2, TRPV5 (Oryctolagus cuniculus, UniProt Q9XSM3, T539A); test: whole-cell patch clamp, % inhibition at […] RR ([…] at […]); type: cell-based
T2 construct: rabbit TRPV5 expressed in HEK293T cells
T2 sequence (Q9XSM3 1-730 T539A): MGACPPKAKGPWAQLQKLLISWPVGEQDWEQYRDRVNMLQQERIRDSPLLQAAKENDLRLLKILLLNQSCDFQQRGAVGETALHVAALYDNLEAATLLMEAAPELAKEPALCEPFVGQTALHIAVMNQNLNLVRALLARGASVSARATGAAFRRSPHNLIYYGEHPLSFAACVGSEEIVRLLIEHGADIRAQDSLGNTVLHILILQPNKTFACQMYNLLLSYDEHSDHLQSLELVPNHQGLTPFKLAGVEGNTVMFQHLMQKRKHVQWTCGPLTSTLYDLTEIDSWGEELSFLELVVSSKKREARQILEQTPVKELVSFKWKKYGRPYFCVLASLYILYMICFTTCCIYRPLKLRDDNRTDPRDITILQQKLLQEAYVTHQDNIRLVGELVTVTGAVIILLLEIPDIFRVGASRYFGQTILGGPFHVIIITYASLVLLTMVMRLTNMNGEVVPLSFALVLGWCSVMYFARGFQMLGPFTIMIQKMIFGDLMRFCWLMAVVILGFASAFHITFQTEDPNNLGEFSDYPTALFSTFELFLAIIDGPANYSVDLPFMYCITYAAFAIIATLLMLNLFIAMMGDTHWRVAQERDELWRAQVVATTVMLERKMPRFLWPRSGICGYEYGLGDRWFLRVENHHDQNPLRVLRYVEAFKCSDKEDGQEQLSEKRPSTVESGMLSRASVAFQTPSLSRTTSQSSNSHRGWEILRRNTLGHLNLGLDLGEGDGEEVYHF

TRPV2 [3] = biological target: T3, TRPV2 (Rattus norvegicus, UniProt Q9WUD2); test: cryo-EM structure ([…] Å, with 2-APB); IC50 from whole-cell patch clamp in HEK293T cells; type: cell-based
T3 construct: wild-type rat TRPV2, C-terminal 1D4 tag, in nanodiscs
T3 sequence (Q9WUD2 1-761): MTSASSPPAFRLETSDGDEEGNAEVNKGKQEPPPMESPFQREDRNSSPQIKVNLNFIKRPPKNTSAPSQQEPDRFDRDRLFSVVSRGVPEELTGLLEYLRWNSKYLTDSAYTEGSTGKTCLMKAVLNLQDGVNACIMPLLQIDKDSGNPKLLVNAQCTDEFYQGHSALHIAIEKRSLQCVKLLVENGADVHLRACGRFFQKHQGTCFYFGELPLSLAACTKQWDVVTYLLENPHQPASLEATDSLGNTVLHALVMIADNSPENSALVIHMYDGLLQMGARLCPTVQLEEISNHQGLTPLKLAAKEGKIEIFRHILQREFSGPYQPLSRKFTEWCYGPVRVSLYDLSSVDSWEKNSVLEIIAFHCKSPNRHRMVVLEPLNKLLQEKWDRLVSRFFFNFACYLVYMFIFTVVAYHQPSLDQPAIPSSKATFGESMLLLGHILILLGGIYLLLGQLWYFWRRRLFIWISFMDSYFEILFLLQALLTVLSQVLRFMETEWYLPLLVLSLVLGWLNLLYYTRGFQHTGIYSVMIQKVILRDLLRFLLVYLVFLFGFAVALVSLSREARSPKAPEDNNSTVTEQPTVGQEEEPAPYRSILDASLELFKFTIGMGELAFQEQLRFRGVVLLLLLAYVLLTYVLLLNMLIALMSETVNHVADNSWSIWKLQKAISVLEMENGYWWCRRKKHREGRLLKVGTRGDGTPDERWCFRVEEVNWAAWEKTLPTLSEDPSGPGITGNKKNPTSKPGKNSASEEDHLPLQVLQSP

TRPV5 [4] = biological target: T4, TRPV5 (Oryctolagus cuniculus, UniProt Q9XSM3); test: cryo-EM structures (8FFQ with PI([…])P2 added, […] Å; 8FFN without, […] Å); IC50 from whole-cell patch clamp in HEK293 cells; type: cell-based
T4 construct: wild-type rabbit TRPV5, C-terminal 1D4 tag, in nanodiscs
T4 sequence (Q9XSM3 1-730): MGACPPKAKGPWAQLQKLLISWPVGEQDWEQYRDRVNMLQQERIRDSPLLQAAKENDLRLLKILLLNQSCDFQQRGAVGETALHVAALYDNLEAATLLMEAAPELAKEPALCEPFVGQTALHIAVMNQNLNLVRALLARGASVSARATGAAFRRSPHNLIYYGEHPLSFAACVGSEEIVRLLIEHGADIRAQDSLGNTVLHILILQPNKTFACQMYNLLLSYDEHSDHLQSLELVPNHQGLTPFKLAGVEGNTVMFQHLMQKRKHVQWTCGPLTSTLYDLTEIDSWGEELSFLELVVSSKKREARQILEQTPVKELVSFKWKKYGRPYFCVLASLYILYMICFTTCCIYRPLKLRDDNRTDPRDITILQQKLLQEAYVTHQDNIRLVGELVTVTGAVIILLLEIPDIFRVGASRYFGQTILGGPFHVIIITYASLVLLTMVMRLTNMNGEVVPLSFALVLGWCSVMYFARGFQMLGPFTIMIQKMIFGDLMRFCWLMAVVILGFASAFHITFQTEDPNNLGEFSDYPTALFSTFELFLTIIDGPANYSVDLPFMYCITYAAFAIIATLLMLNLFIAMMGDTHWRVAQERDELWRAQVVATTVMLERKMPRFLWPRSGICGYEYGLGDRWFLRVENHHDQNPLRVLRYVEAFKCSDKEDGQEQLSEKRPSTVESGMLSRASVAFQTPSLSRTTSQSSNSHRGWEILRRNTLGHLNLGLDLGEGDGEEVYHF

TRPV2 [5] = biological target: T5, TRPV2 (Rattus norvegicus, UniProt Q9WUD2, M607I); test: whole-cell patch clamp, inhibition of 2-APB-induced currents; type: cell-based
T5 construct: rat TRPV2 expressed in HEK293T cells
T5 sequence (Q9WUD2 1-761 M607I): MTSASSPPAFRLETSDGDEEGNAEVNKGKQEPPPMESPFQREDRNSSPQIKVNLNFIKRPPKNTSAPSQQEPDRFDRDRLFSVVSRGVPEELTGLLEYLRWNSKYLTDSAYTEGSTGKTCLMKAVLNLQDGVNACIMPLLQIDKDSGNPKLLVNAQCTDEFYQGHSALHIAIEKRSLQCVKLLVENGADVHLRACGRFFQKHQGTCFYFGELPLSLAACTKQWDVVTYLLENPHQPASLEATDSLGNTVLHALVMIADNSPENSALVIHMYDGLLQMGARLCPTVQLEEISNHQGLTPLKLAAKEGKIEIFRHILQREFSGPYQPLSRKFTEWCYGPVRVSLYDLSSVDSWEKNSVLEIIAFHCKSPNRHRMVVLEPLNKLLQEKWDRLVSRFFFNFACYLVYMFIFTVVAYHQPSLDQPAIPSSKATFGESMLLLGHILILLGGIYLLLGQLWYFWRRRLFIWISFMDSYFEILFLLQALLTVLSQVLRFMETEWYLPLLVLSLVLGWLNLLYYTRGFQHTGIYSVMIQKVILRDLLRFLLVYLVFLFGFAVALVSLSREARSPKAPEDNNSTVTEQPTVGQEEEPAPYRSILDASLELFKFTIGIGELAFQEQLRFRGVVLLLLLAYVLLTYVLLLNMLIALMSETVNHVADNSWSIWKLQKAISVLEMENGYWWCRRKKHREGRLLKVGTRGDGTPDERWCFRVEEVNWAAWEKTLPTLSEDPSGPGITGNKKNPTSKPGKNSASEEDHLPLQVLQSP

TRPV2 [6] = biological target: T3, TRPV2; test: cryo-EM structure ([…] Å, with RR); activates whole-cell currents at […]
[7] = biological target: the molecule itself; test: cryo-EM structure; channel tetramer in MSP2N2/soy polar lipid nanodiscs, 20 mM Hepes pH 8.0, 150 mM NaCl, 2 mM TCEP; with 1 mM ruthenium red, with or without activator (1 mM 2-APB for TRPV2; 400 uM diC8-PI(4,5)P2 for TRPV5)

- IC50 (TRPV2 [1]): 149 ± 111 µM
- % inhibition at 10 μM (TRPV5 [2]): 94.5 ± 1.5
- IC50 (TRPV2 [3]): 0.159 ± 0.047 µM
- IC50 (TRPV5 [4]): 0.0137 ± 0.0044 µM
- IC50 (TRPV2 [5]): 29 ± 5 µM
Molecule: N.N.N.N.N.N.N.N.N.N.N.N.N.N.[Cl-].[Cl-].[Cl-].[Cl-].[Cl-].[Cl-].[O-2].[O-2].[Ru+3].[Ru+3].[Ru+4] [RR, ruthenium red]

Molecule: NCCOB(c1ccccc1)c1ccccc1 [2-APB, 2-aminoethoxydiphenyl borate]
- cryo-EM structural observation (TRPV2 [6]): clear three-lobed density for 2-APB coordinated by His521 and Arg539

B1: wild-type rabbit TRPV5 (natural protein)
chain: MGACPPKAKGPWAQLQKLLISWPVGEQDWEQYRDRVNMLQQERIRDSPLLQAAKENDLRLLKILLLNQSCDFQQRGAVGETALHVAALYDNLEAATLLMEAAPELAKEPALCEPFVGQTALHIAVMNQNLNLVRALLARGASVSARATGAAFRRSPHNLIYYGEHPLSFAACVGSEEIVRLLIEHGADIRAQDSLGNTVLHILILQPNKTFACQMYNLLLSYDEHSDHLQSLELVPNHQGLTPFKLAGVEGNTVMFQHLMQKRKHVQWTCGPLTSTLYDLTEIDSWGEELSFLELVVSSKKREARQILEQTPVKELVSFKWKKYGRPYFCVLASLYILYMICFTTCCIYRPLKLRDDNRTDPRDITILQQKLLQEAYVTHQDNIRLVGELVTVTGAVIILLLEIPDIFRVGASRYFGQTILGGPFHVIIITYASLVLLTMVMRLTNMNGEVVPLSFALVLGWCSVMYFARGFQMLGPFTIMIQKMIFGDLMRFCWLMAVVILGFASAFHITFQTEDPNNLGEFSDYPTALFSTFELFLTIIDGPANYSVDLPFMYCITYAAFAIIATLLMLNLFIAMMGDTHWRVAQERDELWRAQVVATTVMLERKMPRFLWPRSGICGYEYGLGDRWFLRVENHHDQNPLRVLRYVEAFKCSDKEDGQEQLSEKRPSTVESGMLSRASVAFQTPSLSRTTSQSSNSHRGWEILRRNTLGHLNLGLDLGEGDGEEVYHF
notes: Transient receptor potential vanilloid 5 (TRPV5), rabbit, wild type; Homotetramer ('TRPV tetramer', C4 symmetry); No step that removes the 1D4 tag is described; also called rbTRPV5; TRPV5RR; source: S. cerevisiae BJ5457, purified (1D4 antibody beads, eluted with 1D4 peptide; reconstituted into MSP2N2 nanodiscs; SEC)
- binding result [7]: binds
